Measurements as given in the NIST ThermoML archive (doi:10.1021/je800664z).

Assay: refractive index (Na D-line) (dimensionless); xn = mol fraction of the nth substance listed
Conditions: 101 kPa, Liquid, Standard Abbe refractometry

C1COCO1 [1,3-dioxolane] + CC(C)CC(C)(C)C
refractive index
Conditions | 288.15 K | 298.15 K | 308.15 K
x1 = 0.0501 | 1.39395 | 1.38898 | 1.38381
x1 = 0.1 | 1.39385 | 1.38885 | 1.38367
x1 = 0.15 | 1.39377 | 1.38876 | 1.38361
x1 = 0.2 | 1.39374 | 1.38876 | 1.3836
x1 = 0.25 | 1.39378 | 1.38883 | 1.3837
x1 = 0.3 | 1.39389 | 1.38897 | 1.38387
x1 = 0.35 | 1.39411 | 1.3892 | 1.3841
x1 = 0.4 | 1.3944 | 1.38948 | 1.3844
x1 = 0.45 | 1.39473 | 1.38982 | 1.38476
x1 = 0.5 | 1.39512 | 1.39022 | 1.38517
x1 = 0.55 | 1.39558 | 1.39068 | 1.38563
x1 = 0.6 | 1.3961 | 1.3912 | 1.38614
x1 = 0.65 | 1.39668 | 1.39178 | 1.38672
x1 = 0.7 | 1.39734 | 1.39243 | 1.38739
x1 = 0.75 | 1.39807 | 1.39318 | 1.38814
x1 = 0.8 | 1.39883 | 1.39399 | 1.38895
x1 = 0.85 | 1.39966 | 1.39487 | 1.38987
x1 = 0.9 | 1.40055 | 1.39581 | 1.3909
x1 = 0.95 | 1.40152 | 1.39683 | 1.39199
x1 = 1 | 1.40252 | 1.39795 | 1.39322

C1COCO1 [1,3-dioxolane] + CC(C)O
refractive index
Conditions | 288.15 K | 298.15 K | 308.15 K
x1 = 0.05 | 1.38037 | 1.37601 | 1.37126
x1 = 0.1 | 1.38139 | 1.37686 | 1.37207
x1 = 0.15 | 1.38242 | 1.37776 | 1.37295
x1 = 0.2 | 1.38343 | 1.37869 | 1.37388
x1 = 0.25 | 1.38447 | 1.37966 | 1.37483
x1 = 0.3001 | 1.3855 | 1.38065 | 1.37579
x1 = 0.35 | 1.38655 | 1.38168 | 1.3768
x1 = 0.4 | 1.38763 | 1.38274 | 1.37785
x1 = 0.45 | 1.38875 | 1.38384 | 1.37894
x1 = 0.5 | 1.3899 | 1.38496 | 1.38006
x1 = 0.55 | 1.39107 | 1.38611 | 1.38121
x1 = 0.6 | 1.39227 | 1.38729 | 1.38238
x1 = 0.65 | 1.39348 | 1.3885 | 1.38359
x1 = 0.7001 | 1.39473 | 1.38975 | 1.38483
x1 = 0.75 | 1.396 | 1.39103 | 1.38608
x1 = 0.8 | 1.39731 | 1.39234 | 1.38737
x1 = 0.85 | 1.39862 | 1.39368 | 1.38872
x1 = 0.9 | 1.39993 | 1.39509 | 1.39013
x1 = 0.95 | 1.40123 | 1.39653 | 1.39165
x1 = 1 | 1.40252 | 1.39795 | 1.39322
